In patent US20160287553A1, “TRANSLATION INHIBITORS IN HIGH-DOSE CHEMO- AND/OR HIGH-DOSE RADIOTHERAPY” (DEUTSCHES KREBSFORSCHUNGSZENTRUM, priority 2013, published 2016):
Entries after “also recorded” stand apart in the source; their conditions may differ.

Experiments:
Peripheral blood T cells = assay: Etoposide-induced apoptotic cell death of T cells (DNA fragmentation, AnnexinV, FSC/SSC)
Procedure: The human malignant cell lines EU-3 (acute lymphoblastic leukemia), DND-41 (T cell leukemia), Hut-78 (T cell lymphoma), SKW6.4 (B cell leukemia), Reh (acute lymphoblastic leukemia), IM-9 (Chronic myeloid leukemia), HL-60 (promyelocytic leukemia), L1236 (Hodgkin's lymphoma) and NCI-H209 (small cell lung cancer) were cultured at 37° C. with 5% CO2 in RPMI-1640 medium (Sigma-Aldrich, Munich, Germany) supplemented with 10% FCS, 100 U/ml Penicillin (Sigma-Aldrich, Munich, Germany) and 100 μg/ml Streptamycin (Sigma-Aldrich, Munich, Germany) SCLC-21H cells (small cell lung cancer) were cultured in DMEM medium (Sigma-Aldrich, Munich, Germany) supplemented with 10% FCS. Peripheral blood T lymphocytes were isolated as previously described (Klas et al., Int Immunol. 1993; 5: 625-630). B lymphocytes and NK cells were isolated by magnetic activated cell sorting using “B cell isolation kit II” (Miltenyi Biotech, Bergisch Gladbach, Germany) and “NK cell isolation kit, human” (Miltenyi Biotech, Bergisch Gladbach, Germany), respectively, according to the manufacturer's instructions. Human neutrophils were separated from peripheral blood mononuclear cells by Ficoll-Paque density centrifugation, followed by incubation in 1.05% dextran for 30 min at room temperature. Remaining erythrocytes were lysed by resuspension in ice-cold 0.2% sodium chloride solution. After 1 min ice-cold 1.6% sodium-chloride solution was added and lysis was stopped by addition of PBS and neutrophils were resuspended in medium at a concentration of 2×10^6 cells/ml. Human primary cardiomyocytes were purchased from PromoCell (Heidelberg, Germany) and cultured in Myocyte Growth Medium (PromoCell, Heidelberg, Germany). Remaining primary human cells were cultured in RPMI-1640 medium with the same conditions described above.
Apoptotic cell death was determined by AnnexinV staining, cellular forward scatter/side scatter (FSC/SSC) profile, or DNA fragmentation. For AnnexinV staining, 2×10^5 cells were treated with different drugs for indicated time periods, washed with AnnexinV binding buffer (0.01 M Hepes, 0.14 M NaCl, 2.5 mM CaCl2), and stained with AnnexinV-FITC antibody (Immunotools, Friesoythe, Germany) and 7-amino-actinomycin D (Sigma-Aldrich, Munich, Germany) for 30 min at 4° C. The amount of AnnexinV positive cells was determined by FACS measurement. DNA fragmentation was determined according to the method of Nicoletti (Nicoletti et al., J Immunol Methods. 1991; 139: 271-279). Briefly, 2×10^5 cells were treated as indicated, washed with PBS and lysed in Nicoletti buffer (0.1% sodium citrate, 0.1% Triton X-100, 50 μg/ml propidium iodide). DNA fragmentation was determined by FACS. Apoptosis-like cells were determined by forward scatter and side scatter (FSC/SSC) index. Specific DNA fragmentation/specific AnnexinV positive cells/specific apoptosis was calculated as follows: (percentage of experimental DNA fragmentation (or Annexin V positive cells or apoptosis)−percentage of spontaneous DNA fragmentation (or Annexin V positive cells or apoptosis)/(100−percentage of spontaneous DNA fragmentation (or Annexin V positive cells or apoptosis))×100.

[1] = tested on: Splenocytes from p53-/- mice; assay: Etoposide-induced cell death in p53 knock-out splenocytes; format: cell-based, mouse; settings: p53-KO splenocytes, 50 μM Etoposide, 75 nM Roc-A (FIG. 4b)
Procedure: (§1) DNA fragmentation was determined by FACS.
P53^−/− C57B1/6 mice (B6.Trp53tm1Tyj) were kindly provided by Liu H-K (German Cancer Research Center, Heidelberg, Germany). Spleens of 8-12 week old p53^−/−, and p53^+/+ mice were isolated in parallel, minced and incubated for 30 min in RPMI-1640 medium supplemented with DNase I (50 U/ml) and Collagenase IV (1 mg/ml) at 37° C. and 5% CO2. Splenocytes were filtered by […] cell strainer, washed twice with ice-cold wash buffer (PBS, 0.5% FCS, 2 mM EDTA) and resuspended in Oxford medium (RPMI 1640, 10% FCS, 100 μg/ml Penicillin, 100 μg/ml Streptamycin, 10 mM Hepes, 50 μM β-Mercaptoethanol, 2 mM L-glutamine, 1 mM sodium pyruvate, 100 μM non-essential amino acids) at a concentration of 2×10^6 cells/ml.
To further investigate the role of p53 in Roc-A-mediated protection of T cells against DNA damage-induced apoptosis, we performed a p53 knock-down experiment using a siRNA approach (FIG. 4a, upper panel). […] Therefore, we examined the effect of Roc-A on p53 knock-out (KO) cells.

NK cells = assay: Etoposide-induced apoptosis in NK cells; format: cell-based, human; settings: NK cells (FIG. 1c)
Procedure: as §1
Next, we asked whether Roc-A could also protect other normal primary cells from DNA damage-induced toxicity. To address this question, we examined the protective effect of Roc-A on Etoposide-treated human peripheral blood B cells, NK cells, neutrophils, cardiomyocytes and murine hematopoietic stem and progenitor cells (HSPCs).

## COc1ccc([C@@]23Oc4cc(OC)cc(OC)c4[C@]2(O)[C@H](O)[C@H](C(=O)N(C)C)[C@H]3c2ccccc2)cc1 [Roc-A, (1R,2R,3S,3aR,8bS)-1,8b-dihydroxy-6,8-dimethoxy-3a-(4-methoxyphenyl)-N,N-dimethyl-3-phenyl-2,3-dihydro-1H-cyclopenta[b][1]benzofuran-2-carboxamide]
Peripheral blood T cells; 50 μM Etoposide, 75 nM Roc-derivative, 24 h (FIG. 6b)
  Protection of normal T cells from Etoposide-induced cell death by Roc-derivatives: different levels of protection
Peripheral blood T cells; 50 μM Etoposide, different concentrations of Roc-A, indicated time-periods (FIG. 1a middle)
  Toxicity of Etoposide, kinetic analysis: could reduce the toxicity of Etoposide at all measured time points
Peripheral blood T cells; 24 h, increasing concentrations of Etoposide, different concentrations of Roc-A, dose-dependent (FIG. 1a left, FIG. 7)
  Reduction of Etoposide-induced cell death of normal T cells: more than 50%
Peripheral blood T cells; Roc-A added 2 and 4.5 h after Etoposide (50 μM) (FIG. 1a right)
  Chemo-protective effect when Roc-A is administered after Etoposide: chemo-protective effect could be even seen
Peripheral blood T cells; Roc-A with Etoposide, FIG. 1a, FIG. 7
  Protection of T cells from Etoposide-induced apoptotic cell death: protects T cells from Etoposide-induced apoptotic cell death in a dose- and time-dependent manner; also recorded: reduces Etoposide-induced apoptosis in T cells
[1]
  Protection against Etoposide-induced cell death: abolished; also recorded: not statistically significant
NK cells
  Protection against Etoposide-induced apoptosis: protected
